Data reported in patent US20100227921A1, “AMINO ACID AND PEPTIDE CARBAMATE PRODRUGS OF […] USES THEREOF” (SHIRE LLC, priority 2009, published 2010).
Values joined by “and” are separate entries in the source; they are usually repeats but may differ in a detail not shown here. Identical values can stand only once. Like-named read-outs stand apart in the source and are kept apart here. Marks after values point to notes of the source that are not given here.

Assay: Comparative bioavailability after oral or intravenous administration to monkeys (plasma LC-MS-MS)
Type: in vivo, cynomolgus monkey
Details: male monkey; for half-life: read-out: t½ of tapentadol valine carbamate (converted); for AUC(0-t): read-out: AUCt of tapentadol valine carbamate; for clearance: read-out: CL of tapentadol valine carbamate (converted); for Vd: read-out: Vss of tapentadol valine carbamate
Experimental: Test substances i.e., tapentadol and tapentadol valine carbamate were administered (either intravenously or orally) to a group of five male cynomolgus monkeys in a three way crossover design. The oral doses were given at 1 mg tapentadol base equivalents/kg while the intravenous dose was 0.5 mg/kg
Blood samples were taken at various times after administration and submitted to analysis for the parent drug and tapentadol valine carbamate using a validated LC-MS-MS assay. Pharmacokinetic parameters derived from the plasma analytical data were determined using Win Nonlin.

[1] = i.v. tapentadol valine carbamate 0.5 mg tapentadol free base equiv/kg, individual animals 1-5
[2] = oral tapentadol valine carbamate 1 mg tapentadol free base equiv/kg, individual animals 1-5
[3] = male, cynomolgus monkey, plasma, iv, 0.5 mg/kg, i.v. tapentadol valine carbamate 0.5 mg tapentadol free base equiv/kg, individual animals 1-5
[4] = male, cynomolgus monkey, plasma, iv, 0.5 mg/kg, i.v. tapentadol valine carbamate 0.5 mg tapentadol free base equiv/kg, mean

CC[C@H](c1cccc(OC(=O)N[C@H](C(=O)O)C(C)C)c1)[C@H](C)CN(C)C (racemic) [Tapentadol valine carbamate, 2-[3-(3-Dimethylamino-1-ethyl-2-methyl-propyl)-phenoxycarbonylamino]-3-methyl-butyric acid]
concentration at 0.083 h (cynomolgus monkey, plasma, iv, i.v. tapentadol valine carbamate 0.5 mg tapentadol free base equiv/kg, 0.083 h, individual animals 1-5): 790 ng/mL
concentration at 0.25 h (cynomolgus monkey, plasma, iv, i.v. tapentadol valine carbamate 0.5 mg tapentadol free base equiv/kg, 0.25 h, individual animals 1-5): 783 ng/mL
concentration at 1 h (cynomolgus monkey, plasma, iv, i.v. tapentadol valine carbamate 0.5 mg tapentadol free base equiv/kg, 1 h, individual animals 1-5): 222 ng/mL
concentration at 2 h (cynomolgus monkey, plasma, iv, i.v. tapentadol valine carbamate 0.5 mg tapentadol free base equiv/kg, 2 h, individual animals 1-5): 92.3 ng/mL
concentration at 4 h (cynomolgus monkey, plasma, iv, i.v. tapentadol valine carbamate 0.5 mg tapentadol free base equiv/kg, 4 h, individual animals 1-5): 11.8 ng/mL
concentration at 6 h (cynomolgus monkey, plasma, iv, i.v. tapentadol valine carbamate 0.5 mg tapentadol free base equiv/kg, 6 h, individual animals 1-5): 3.21 ng/mL
Plasma concentration of tapentadol valine carbamate (i.v. tapentadol valine carbamate 0.5 mg tapentadol free base equiv/kg, 0 h, individual animals 1-5): BLQ (BLQ Values less than LOQ (<0.5 ng/mL))
Plasma concentration of tapentadol valine carbamate (i.v. tapentadol valine carbamate 0.5 mg tapentadol free base equiv/kg, 0.083 h, individual animals 1-5): 951 ng/mL and 914 ng/mL and 1166 ng/mL and 1024 ng/mL
Plasma concentration of tapentadol valine carbamate (i.v. tapentadol valine carbamate 0.5 mg tapentadol free base equiv/kg, 0.25 h, individual animals 1-5): 825 ng/mL and 848 ng/mL and 427 ng/mL and 672 ng/mL
Plasma concentration of tapentadol valine carbamate (i.v. tapentadol valine carbamate 0.5 mg tapentadol free base equiv/kg, 0.5 h, individual animals 1-5): 119.8 ng/mL and 576 ng/mL and 620 ng/mL and 609 ng/mL and 430 ng/mL
Plasma concentration of tapentadol valine carbamate (i.v. tapentadol valine carbamate 0.5 mg tapentadol free base equiv/kg, 1 h, individual animals 1-5): 205 ng/mL and 326 ng/mL and 274 ng/mL and 251 ng/mL
Plasma concentration of tapentadol valine carbamate (i.v. tapentadol valine carbamate 0.5 mg tapentadol free base equiv/kg, 2 h, individual animals 1-5): 112.1 ng/mL and 115.5 ng/mL and 85.6 ng/mL and 87.7 ng/mL
Plasma concentration of tapentadol valine carbamate (i.v. tapentadol valine carbamate 0.5 mg tapentadol free base equiv/kg, 4 h, individual animals 1-5): 20.0 ng/mL and 21.4 ng/mL and 12.2 ng/mL and 14.6 ng/mL
Plasma concentration of tapentadol valine carbamate (i.v. tapentadol valine carbamate 0.5 mg tapentadol free base equiv/kg, 6 h, individual animals 1-5): 4.94 ng/mL and 6.10 ng/mL and 3.48 ng/mL and 4.20 ng/mL
Plasma concentration of tapentadol valine carbamate (i.v. tapentadol valine carbamate 0.5 mg tapentadol free base equiv/kg, 9 h, individual animals 1-5): 1.04 ng/mL and 0.769 ng/mL and 1.89 ng/mL and 1.20 ng/mL and 1.35 ng/mL
AUC of tapentadol valine carbamate [1]: 926 ng·h/mL and 1050 ng·h/mL and 915 ng·h/mL and 846 ng·h/mL
AUCt of tapentadol valine carbamate [1]: 925 ng·h/mL and 1040 ng·h/mL and 912 ng·h/mL and 843 ng·h/mL
C0 of tapentadol valine carbamate [1]: 794 ng/mL and 1020 ng/mL and 949 ng/mL and 1930 ng/mL and 1260 ng/mL
CL of tapentadol valine carbamate [1]: 9 mL/min/kg and 7.97 mL/min/kg and 9.12 mL/min/kg and 8.18 mL/min/kg
Vss of tapentadol valine carbamate [1]: 0.529 L/kg and 0.499 L/kg and 0.481 L/kg and 0.562 L/kg
t½ of tapentadol valine carbamate [1]: 1.1 h
AUC of tapentadol valine carbamate [2]: 219 ng·h/mL and 367 ng·h/mL and 368 ng·h/mL and 48 ng·h/mL and 436 ng·h/mL
AUCt of tapentadol valine carbamate [2]: 216 ng·h/mL and 351 ng·h/mL and 358 ng·h/mL and 187 ng·h/mL and 432 ng·h/mL
Cmax of tapentadol valine carbamate [2]: 150 ng/mL and 176 ng/mL and 153 ng/mL and 92.1 ng/mL and 249 ng/mL
T>50%Cmax of tapentadol valine carbamate [2]: 0.5 h (4×) and 1 h
t½ of tapentadol valine carbamate [2]: 3.35 h and 2.48 h and 1.86 h and 2.88 h
T>50%Cmax of tapentadol valine carbamate (oral tapentadol valine carbamate 1 mg tapentadol free base equiv/kg, median): 0.5^a h
Plasma concentration of tapentadol valine carbamate (oral tapentadol valine carbamate 10 mg tapentadol free base equiv/kg, 0.5 h, individual animals 1-5): 150 ng/mL and 176 ng/mL and 153 ng/mL and 34.7 ng/mL and 249 ng/mL
Plasma concentration of tapentadol valine carbamate (oral tapentadol valine carbamate 10 mg tapentadol free base equiv/kg, 0.5 h, mean): 153 ng/mL
Plasma concentration of tapentadol valine carbamate (oral tapentadol valine carbamate 10 mg tapentadol free base equiv/kg, 1 h, individual animals 1-5): 96.1 ng/mL and 126 ng/mL and 127 ng/mL and 92.1 ng/mL and 227 ng/mL
Plasma concentration of tapentadol valine carbamate (oral tapentadol valine carbamate 10 mg tapentadol free base equiv/kg, 1 h, mean): 134 ng/mL
Plasma concentration of tapentadol valine carbamate (oral tapentadol valine carbamate 10 mg tapentadol free base equiv/kg, 2 h, individual animals 1-5): 31.8 ng/mL and 71.3 ng/mL and 58.9 ng/mL and 49.4 ng/mL and 87.9 ng/mL
Plasma concentration of tapentadol valine carbamate (oral tapentadol valine carbamate 10 mg tapentadol free base equiv/kg, 2 h, mean): 59.9 ng/mL
Plasma concentration of tapentadol valine carbamate (oral tapentadol valine carbamate 10 mg tapentadol free base equiv/kg, 3 h, individual animals 1-5): 10.7 ng/mL and 23.1 ng/mL and 25.2 ng/mL and 16.4 ng/mL and 22.1 ng/mL
Plasma concentration of tapentadol valine carbamate (oral tapentadol valine carbamate 10 mg tapentadol free base equiv/kg, 3 h, mean): 19.5 ng/mL
Plasma concentration of tapentadol valine carbamate (oral tapentadol valine carbamate 10 mg tapentadol free base equiv/kg, 4 h, individual animals 1-5): 5.49 ng/mL and 15.1 ng/mL and 25.7 ng/mL and 12.7 ng/mL and 6.89 ng/mL
Plasma concentration of tapentadol valine carbamate (oral tapentadol valine carbamate 10 mg tapentadol free base equiv/kg, 4 h, mean): 13.2 ng/mL
Plasma concentration of tapentadol valine carbamate (oral tapentadol valine carbamate 10 mg tapentadol free base equiv/kg, 6 h, individual animals 1-5): 4.60 ng/mL and 10.0 ng/mL and 17.0 ng/mL and 4.51 ng/mL and 3.93 ng/mL
Plasma concentration of tapentadol valine carbamate (oral tapentadol valine carbamate 10 mg tapentadol free base equiv/kg, 6 h, mean): 8.01 ng/mL
Plasma concentration of tapentadol valine carbamate (oral tapentadol valine carbamate 10 mg tapentadol free base equiv/kg, 9 h, individual animals 1-5): 1.93 ng/mL and 7.34 ng/mL and 5.61 ng/mL and 1.11 ng/mL and 1.86 ng/mL
Plasma concentration of tapentadol valine carbamate (oral tapentadol valine carbamate 10 mg tapentadol free base equiv/kg, 9 h, mean): 3.57 ng/mL
Plasma concentration of tapentadol valine carbamate (oral tapentadol valine carbamate 10 mg tapentadol free base equiv/kg, 12 h, individual animals 1-5): 0.741 ng/mL and 2.97 ng/mL and 3.04 ng/mL and 0.716 ng/mL and 0.929 ng/mL
Plasma concentration of tapentadol valine carbamate (oral tapentadol valine carbamate 10 mg tapentadol free base equiv/kg, 12 h, mean): 1.68 ng/mL
concentration at 0.083 h (male, cynomolgus monkey, plasma, iv, 0.5 mg tapentadol free base equiv/kg, i.v. tapentadol valine carbamate 0.5 mg tapentadol free base equiv/kg, 0.083 h, mean): 969 ng/mL
concentration at 0.25 h (male, cynomolgus monkey, plasma, iv, 0.5 mg tapentadol free base equiv/kg, i.v. tapentadol valine carbamate 0.5 mg tapentadol free base equiv/kg, 0.25 h, mean): 711 ng/mL
concentration at 0.5 h (male, cynomolgus monkey, plasma, iv, 0.5 mg tapentadol free base equiv/kg, i.v. tapentadol valine carbamate 0.5 mg tapentadol free base equiv/kg, 0.5 h, mean): 471 ng/mL
concentration at 1 h (male, cynomolgus monkey, plasma, iv, 0.5 mg tapentadol free base equiv/kg, i.v. tapentadol valine carbamate 0.5 mg tapentadol free base equiv/kg, 1 h, mean): 255 ng/mL
concentration at 2 h (male, cynomolgus monkey, plasma, iv, 0.5 mg tapentadol free base equiv/kg, i.v. tapentadol valine carbamate 0.5 mg tapentadol free base equiv/kg, 2 h, mean): 98.6 ng/mL
concentration at 4 h (male, cynomolgus monkey, plasma, iv, 0.5 mg tapentadol free base equiv/kg, i.v. tapentadol valine carbamate 0.5 mg tapentadol free base equiv/kg, 4 h, mean): 16 ng/mL
concentration at 6 h (male, cynomolgus monkey, plasma, iv, 0.5 mg tapentadol free base equiv/kg, i.v. tapentadol valine carbamate 0.5 mg tapentadol free base equiv/kg, 6 h, mean): 4.39 ng/mL
concentration at 9 h (male, cynomolgus monkey, plasma, iv, 0.5 mg tapentadol free base equiv/kg, i.v. tapentadol valine carbamate 0.5 mg tapentadol free base equiv/kg, 9 h, mean): 1.25 ng/mL
half-life (male, cynomolgus monkey, plasma, iv, 0.5 mg/kg, i.v. tapentadol valine carbamate 0.5 mg tapentadol free base equiv/kg, calculated as ln2/mean k): 1.4 h
AUC [3]: 680 ng·h/mL
AUC(0-t) [3]: 678 ng·h/mL
clearance [3]: 12.2 mL/min/kg
Vd [3]: 0.75 L/kg
half-life [3]: 1.5 h
AUC [4]: 883 ng·h/mL
C0 [4]: 1190 ng/mL
AUC(0-t) [4]: 880 ng·h/mL
clearance [4]: 9.63 mL/min/kg
Vd [4]: 0.564 L/kg
